Test results published in patent US20110009335A1, “Anticancer Treatments” (priority 2008, published 2011).

Tests used:
[1] = mouse, in vivo
Procedure: Body weight effects were determined by comparing each mouse body weight measurement with the initial body weight (first day of treatment).
The NCI activity criterion of body weight loss >20% was used to gauge compound toxicity.
Body weight effects were determined by comparing each mouse body weight measurement with the initial body weight (first day of treatment). The NCI activity criterion of body weight loss >20% was used to gauge compound toxicity.

[2] = test system: CAKI-1 human renal tumor xenograft; test: Aplidine with sunitinib, CAKI-1 xenograft in athymic nude mice (Example 2); format: in vivo; details: doses and schedules tested
Procedure: (§1) Female athymic nude mice (Harlan Sprague Dawley, Madison, Wis.) were utilized for all experiments. Mice were implanted with tumor fragments or a cell suspension when mice were 5 weeks of age. Animals were housed in ventilated rack caging, 5 mice per cage, with food and water ad libitum. The mice were acclimated for 1 week prior to being implanted with tumor fragments or cell suspensions.
Cells from in vitro passage 4-20 were implanted SC into study mice: 5×10^6 cells/mouse in 0.2 ml 50% Matrigel/50% medium without antibiotics or serum, using a 23 G needle and 1 cc syringe. Bacterial cultures were performed on aliquots of the cells prepared for implantation.
(§2) Tumor measurements were determined as disclosed in Example 1.
Body weights were recorded on treatment days and when tumor sizes were measured. In those days wherein the two drugs were administered the same day, the combination therapy groups were treated by co-administering the two drugs at the same time, with no attempt to sequence the treatments. […]
(§3) Tumor size measurements were recorded twice weekly from the treatment initiation until the termination of the study.
(§4) Mean, standard deviation and standard error of the mean were determined for tumor volume for all animal groups at all assessments. […]

[3] = test system: MRI-H-121 human renal tumor xenograft; test: Aplidine with sunitinib, MRI-H-121 xenograft in athymic nude mice (Example 2); format: in vivo; details: doses and schedules tested
Procedure: as §1, §2
(§5) Body weights were recorded on treatment days and when tumor sizes were measured. In those days wherein the two drugs were administered the same day, the combination therapy groups were treated by co-administering the two drugs at the same time, with no attempt to sequence the treatments.
(§6) Aplidine was provided in the form of vials of lyophilized aplidine powder which was reconstituted in Cremophor EL/ethanol/water (CEW) 15/15/70 to a concentration of 0.5 mg/ml. The aplidine solution in CEW was diluted in 0.9% Saline to the dosing formulation concentrations, being the final proportion of CEW of 0.18/0.18/0.84. […]
as §3, §4

[4] = test system: A498 human renal tumor xenograft; test: Aplidine with sunitinib, A498 xenograft in athymic nude mice (Example 2); format: in vivo; details: doses tested; sunitinib 40 mg/kg
Procedure: as §1, §2, §5, §6, §3, §4

## CCN(CC)CCNC(=O)c1c(C)[nH]c(/C=C2\C(=O)Nc3ccc(F)cc32)c1C [sunitinib]
[1]
  effect on body weight / toxicity: did not cause a significant decline in mean body weight
[2]
  antitumor activity as single agent (monotherapy): inactive
[3]
  antitumor activity as single agent (monotherapy): refractory
[4]
  antitumor activity as single agent (monotherapy): did not reach the NCI criteria
